Data as given in patent publication US11712438B2, “Phenyl derivatives as PGE2 receptor modulators” (IDORSIA PHARMACEUTICALS LTD, priority 2017, dated 2023).

Experiments:
Assay in all cases: cell-based
EP4 = EP4 (Homo sapiens, UniProt P35408);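 further: inhibition of PGE2-evoked (6 nM) cAMP accumulation in BT549 breast cancer cells endogenously expressing EP4, cAMP read by HTRF competitive immunoassay after 30 min at room temperature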
EP2 = EP2 (Homo sapiens, UniProt P43116);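 further: SF295 glioblastoma cells with endogenous EP2 only, PGE2-stimulated cAMP accumulation read by HTRF competitive immunoassay, 45 min pre-incubation then 30 min at room temperature, IBMX in buffer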
PTRGER4 (EP4) = PTRGER4 (EP4) (Homo sapiens, UniProt P35408);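 further: assay plate preincubated 15 min at 37 °C, after which PGE2 was added at 20 nM final and incubation continued 120 min at 37 °C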
PTGER2 (EP2) = PTGER2 (EP2) (Homo sapiens, UniProt P43116)
PTGER2 (EP2), sequence (P43116 whole entry): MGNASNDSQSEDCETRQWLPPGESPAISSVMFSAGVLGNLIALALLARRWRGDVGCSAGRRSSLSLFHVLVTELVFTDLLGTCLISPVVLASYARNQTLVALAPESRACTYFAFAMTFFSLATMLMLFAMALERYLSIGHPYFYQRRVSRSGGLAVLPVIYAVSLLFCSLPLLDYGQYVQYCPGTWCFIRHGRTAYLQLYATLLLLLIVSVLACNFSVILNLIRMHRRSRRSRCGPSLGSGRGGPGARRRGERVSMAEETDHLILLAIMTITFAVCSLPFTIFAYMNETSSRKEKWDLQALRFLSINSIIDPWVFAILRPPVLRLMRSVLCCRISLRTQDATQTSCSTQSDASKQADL
From the text: The assay is using the PathHunter™ HEK 293 PTGER2 and PTGER4 b-arrestin cell lines from DiscoverX. The system is based on the Enzyme Fragment Complementation Technology. Two complementing fragments of the b-galactosidase enzyme are expressed within stably transfected cells. The larger portion of b-gal, termed EA for Enzyme Acceptor, is fused to the C-terminus of b-arrestin 2. The smaller fragment, termed ProLink™ tag, is fused to PTGER2 (EP2) or PTRGER4 (EP4) at the C-terminus. Upon activation, b-arrestin is recruited which forces the interaction of ProLink and EA, allowing complementation of the two fragments of b-gal and the formation of a functional enzyme which is capable of hydrolysing the substrate and generating a chemiluminescent signal.
The HEK 293 PTGER2 b-arrestin cells (DiscoverX 93-021-4C1) are detached from culture dishes with a cell dissociation buffer (Invitrogen, 13151-014), and collected in growing medium (GM: DMEM+Glutamax-I (Invitrogen 32430)/10% FCS, 1% Penicilin/streptomycin). 5000 cells per well of a 384 well plate (white with white bottom Greiner 781080) are seeded in 20 ul per well of GM. Plate is incubated at 37° C., 5% CO2 for 24 hours.
Stock solutions of test compounds are made at a concentration of 10 mM in DMSO, and serially diluted in DMSO to concentrations required for inhibition dose response curves (tested concentration range 10 μM-2 nM or 1 μM-0.2 nM).
PGE2 (Cayman 14010, stock solution: 10 mM in DMSO) is used as agonist at 5 μM final concentration, corresponding to EC80.
Five microliters of diluted compounds are transferred into the assay plate. Plate is pre-incubated 15 minutes at 37° C. Then five microliters of PGE2 (final conc. 5 μM) are transferred into the assay plate. Plate is incubated 120 minutes at 37° C.
Twelve μl of reagent are transferred to the assay plate and incubate for 1 hour at room temperature in the dark. Luminescence counts are read on a BMG Fluostar Optima reader according to manufacturer's instructions.
For each compound concentration calculate of the percentage of activity compared to DMSO control value as average±STDEV. (each concentration is measured in duplicate)
When compounds were measured multiple times, mean values are given.

EP4, sequence (P35408 whole entry): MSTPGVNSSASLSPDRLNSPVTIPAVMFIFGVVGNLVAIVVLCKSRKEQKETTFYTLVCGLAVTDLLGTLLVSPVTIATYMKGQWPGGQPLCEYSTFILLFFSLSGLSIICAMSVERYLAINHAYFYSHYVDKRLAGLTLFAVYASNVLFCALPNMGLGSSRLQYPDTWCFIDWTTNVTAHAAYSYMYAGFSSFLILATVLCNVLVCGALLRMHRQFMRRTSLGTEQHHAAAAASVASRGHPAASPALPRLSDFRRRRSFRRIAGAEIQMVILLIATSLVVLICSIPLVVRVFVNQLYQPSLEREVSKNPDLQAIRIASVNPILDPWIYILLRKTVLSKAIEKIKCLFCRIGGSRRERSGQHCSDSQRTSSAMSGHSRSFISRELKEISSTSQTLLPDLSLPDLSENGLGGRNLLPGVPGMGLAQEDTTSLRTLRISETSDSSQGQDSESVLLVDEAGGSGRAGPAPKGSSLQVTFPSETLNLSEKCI
PTRGER4 (EP4), sequence (P35408 whole entry): as above
EP2, sequence (P43116 whole entry): as the sequence (P43116 whole entry) above

Compound	IC50 (EP4)	IC50 (EP2)	IC50 (PTRGER4 (EP4))	IC50 (PTGER2 (EP2))
O=C(O)c1ccc(-c2cc(NCCc3c(F)cc(Br)cc3F)ncn2)cc1OC(F)F [Example 41, 4-{6-[2-(4-Bromo-2,6-difluoro-phenyl)-ethylamino]-pyrimidin-4-yl}-2-difluoromethoxy-benzoic acid]	107 nM	20 nM	342 nM	92 nM
O=C(O)c1ccc(-c2cc(NCCc3c(F)cc(Br)cc3F)ncn2)cc1OC1CCC1 [Example 42, 4-{6-[2-(4-Bromo-2,6-difluoro-phenyl)-ethylamino]-pyrimidin-4-yl}-2-cyclobutoxy-benzoic acid]	297 nM	50 nM	241 nM	59 nM
CCCCOc1cc(-c2cc(NCCc3c(F)cc(Br)cc3F)ncn2)ccc1C(=O)O [Example 43, 4-{6-[2-(4-Bromo-2,6-difluoro-phenyl)-ethylamino]-pyrimidin-4-yl}-2-butoxy-benzoic acid]	514 nM	66 nM	208 nM	55 nM
CCOc1cc(-c2cc(NCCc3c(F)cc(Br)cc3F)ncn2)sc1CCC(=O)O [Example 44, 3-(5-{6-[2-(4-Bromo-2,6-difluoro-phenyl)-ethylamino]-pyrimidin-4-yl}-3-ethoxy-thiophen-2yl)-propionic acid]	38 nM	120 nM	62 nM	44 nM
CCOc1cc(-c2cc(NCCc3c(F)cc(Br)cc3F)ncn2)ccc1OCCC(=O)O [Example 45, 3-(4-{6-[2-(4-Bromo-2,6-difluoro-phenyl)-ethylamino]-pyrimidin-4-yl}-2-ethoxy-phenoxy)-propionic acid]	165 nM	184 nM	50 nM	81 nM
O=C(O)c1cccc2[nH]c(-c3cc(NCCc4c(F)cc(Br)cc4F)ncn3)cc12 [Example 46, 2-{6-[2-(4-Bromo-2,6-difluoro-phenyl)-ethylamino]-pyrimidin-4-yl}-1H-indole-4-carboxylic acid]	470 nM	303 nM	148 nM	105 nM
CCOc1cc(-c2cc(NCCc3c(F)cc(Br)cc3F)ncn2)ccc1CC(=O)O [Example 49, (4-{6-[2-(4-Bromo-2,6-difluoro-phenyl)-ethylamino]-pyrimidin-4-yl}-2-ethoxy-phenyl)-acetic acid]	159 nM	246 nM	143 nM	139 nM
CCOc1cc(-c2cc(NCCc3ccc(Br)cc3OC)ncn2)ccc1C(=O)O [Example 50, 4-{6-[2-(4-Bromo-2-methoxy-phenyl)-ethylamino]-pyrimidin-4-yl}-2-ethoxy-benzoic acid]	910 nM	259 nM	1310 nM	264 nM
CCOc1cc(-c2cc(NCCc3cc(OC)ccc3OC)ncn2)sc1C(=O)O [Example 72, 5-{6-[2-(2,5-Dimethoxy-phenyl)-ethylamino]-pyrimidin-4-yl}-3-ethoxy-thiophene-2-carboxylic acid]	42 nM	40 nM	104 nM	77 nM
CCOc1cc(-c2cc(NCCc3ccc(OC)cc3OC)ncn2)sc1C(=O)O [Example 73, 5-{6-[2-(2,4-Dimethoxy-phenyl)-ethylamino]-pyrimidin-4-yl}-3-ethoxy-thiophene-2-carboxylic acid]	35 nM	30 nM	136 nM	54 nM
CCOc1cc(Br)ccc1CCNc1cc(-c2cc(OCC)c(-c3noc(=O)[nH]3)s2)ncn1 [Example 85, 3-(5-{6-[2-(4-Bromo-2-ethoxy-phenyl)-ethylamino]-pyrimidin-4-yl}-3-ethoxy-thiophen-2-yl)-[1,2,4]oxadiazol-5(4H)-one]	12 nM	7 nM	6 nM	8 nM
CCOc1cc(-c2cc(NCCc3c(F)cc(Cl)cc3OC)ncn2)sc1-c1noc(=O)[nH]1 [Example 86, 3-(5-{6-[2-(4-Chloro-2-fluoro-6-methoxy-phenyl)-ethylamino]-pyrimidin-4-yl}-3-ethoxy-thiophen-2yl)-[1,2,4]oxadiazol-5(4H)-one]	89 nM	84 nM	30 nM	16 nM
CCOc1cc(-c2cc(NCCc3c(F)cc(Br)cc3OC)ncn2)sc1-c1noc(=O)[nH]1 [Example 87, 3-(5-{6-[2-(4-Bromo-2-fluoro-6-methoxy-phenyl)-ethylamino]-pyrimidin-4-yl}-3-ethoxy-thiophen-2yl)-[1,2,4]oxadiazol-5(4H)-one]	17 nM	28 nM	5 nM	11 nM

Other lines, results leading:

IC50 (EP4)	IC50 (EP2)	IC50 (PTRGER4 (EP4))	IC50 (PTGER2 (EP2))	Compound
85 nM	129 nM	11 nM	50 nM	CCOc1cc(-c2cc(NCCc3c(F)cc(Br)cc3F)ncn2)sc1/C=C/C(=O)O [Example 47, (E)-3-(5-{6-[2-(4-Bromo-2,6-difluoro-phenyl)-ethylamino]-pyrimidin-4-yl}-3-ethoxy-thiophen-2yl)-acrylic acid]
51 nM	46 nM	25 nM	28 nM	CCOc1cc(-c2cc(NCCc3c(F)cc(Br)cc3F)ncn2)sc1CC(=O)O [Example 48, (5-{6-[2-(4-Bromo-2,6-difluoro-phenyl)-ethylamino]-pyrimidin-4-yl}-3-ethoxy-thiophen-2-yl)-acetic acid]
221 nM	63 nM	472 nM	437 nM	CCc1cc(-c2cc(NCCc3c(F)cccc3F)ncn2)sc1C(=O)O [Example 53, 5-{6-[2-(2,6-Difluoro-phenyl)-ethylamino]-pyrimidin-4-yl}-3-ethyl-thiophene-2-carboxylic acid]
10 nM	31 nM	17 nM	60 nM	CCOc1cc(-c2cc(NCCc3ccc(Br)cc3)ncn2)sc1C(=O)O [Example 54, 5-{6-[2-(4-Bromo-phenyl)-ethylamino]-pyrimidin-4-yl}-3-ethoxy-thiophene-2-carboxylic acid]
396 nM	65 nM	1000 nM	89 nM	CCOc1cc(-c2cc(NCCc3ccccc3C)ncn2)sc1C(=O)O [Example 55, 3-Ethoxy-5-[6-(2-o-tolyl-ethylamino)-pyrimidin-4-yl]-thiophene-2-carboxylic acid]
775 nM	512 nM	3030 nM	717 nM	CCOc1cc(-c2cc(NCCc3ccccc3F)ncn2)sc1C(=O)O [Example 56, 3-Ethoxy-5-{6-[2-(2-fluoro-phenyl)-ethylamino]-pyrimidin-4-yl}-thiophene-2-carboxylic acid]
51 nM	131 nM	169 nM	359 nM	CCOc1cc(-c2cc(NCCc3cccc(OC)c3)ncn2)sc1C(=O)O [Example 59, 3-Ethoxy-5-{6-[2-(3-methoxy-phenyl)-ethylamino]-pyrimidin-4-yl}-thiophene-2-carboxylic acid]
79 nM	176 nM	108 nM	324 nM	Cc1ccc(CCNc2cc(-c3cc(C(F)(F)F)c(C(=O)O)s3)ncn2)cc1 [Example 62, 5-[6-(2-p-Tolyl-ethylamino)-pyrimidin-4-yl]-3-trifluoromethyl-thiophene-2-carboxylic acid]
38 nM	244 nM	205 nM	316 nM	Cc1ccc(CCNc2cc(-c3cc(C(F)(F)F)c(C(=O)O)s3)ncn2)c(C)c1 [Example 64, 5-{6-[2-(2,4-Dimethyl-phenyl)-ethylamino]-pyrimidin-4-yl}-3-trifluoromethyl-thiophene-2-carboxylic acid]
53 nM	102 nM	136 nM	111 nM	CCOc1cc(-c2cc(NCCc3ccc(Cl)cc3[N+](=O)[O-])ncn2)sc1C(=O)O [Example 65, 5-{6-[2-(4-Chloro-2-nitro-phenyl)-ethylamino]-pyrimidin-4-yl}-3-ethoxy-thiophene-2-carboxylic acid]
53 nM	27 nM	133 nM	16 nM	CCOc1cc(-c2cc(NCCc3ccc(Cl)cc3Cl)ncn2)sc1C(=O)O [Example 66, 5-{6-[2-(2,4-Dichloro-phenyl)-ethylamino]-pyrimidin-4-yl}-3-ethoxy-thiophene-2-carboxylic acid]
25 nM	165 nM	33 nM	145 nM	CCOc1cc(-c2cc(NCCc3ccc(C)c(C)c3)ncn2)sc1C(=O)O [Example 68, 5-{6-[2-(3,4-Dimethyl-phenyl)-ethylamino]-pyrimidin-4-yl}-3-ethoxy-thiophene-2-carboxylic acid]
53 nM	70 nM	100 nM	85 nM	CCOc1cc(-c2cc(NCCc3cc(Br)ccc3OC)ncn2)sc1C(=O)O [Example 71, 5-{6-[2-(5-Bromo-2-methoxy-phenyl)-ethylamino]-pyrimidin-4-yl}-3-ethoxy-thiophene-2-carboxylic acid]
918 nM	568 nM	2180 nM	727 nM	CCOc1cc(-c2cc(NCCc3ccccc3)ncn2)sc1C(=O)O [Example 75, 3-Ethoxy-5-(6-phenethylamino-pyrimidin-4-yl)-thiophene-2-carboxylic acid]
88 nM	234 nM	310 nM	488 nM	CCOc1cc(-c2cc(NCCc3cccc(C(=O)OC)c3)ncn2)sc1C(=O)O [Example 76, 3-Ethoxy-5-{6-[2-(3-methoxycarbonyl-phenyl)-ethylamino]-pyrimidin-4-yl}-thiophene-2-carboxylic acid]
46 nM	66 nM	103 nM	74 nM	CCOc1cc(-c2cc(NCCc3ccc(Cl)cc3)ncn2)sc1C(=O)O [Example 82, 5-{6-[2-(4-Chloro-phenyl)-ethylamino]-pyrimidin-4-yl}-3-ethoxy-thiophene-2-carboxylic acid]
